Test results from paper PMC10100968, “The Role of Glutamine Synthetase in Regulating Ammonium Assimilation and Iron-Only Nitrogenase Expression in a Photosynthetic Diazotroph” (Microbiology Spectrum, 2023).

Key:
GlnA1 [1] = molecular target: T1, GlnA1 (Rhodopseudomonas palustris, UniProt Q6N5K7); assay: gamma-glutamylhydroxamate formation, absorbance at […] nm; format: biochemical; conditions: 10 mM ATP, 40 mM MgSO4, 10 mM cysteine, 1 mM EDTA, pH 7.5, 30 °C, deadenylylated enzyme from nitrogen-limited cells
T1 construct: gene glnA; GSI dodecamer; adenylylated at Tyr398 when made in nitrogen-replete medium

GlnA1 [2] = molecular target: T2, GlnA1 (Rhodopseudomonas palustris, UniProt Q6N5K7, Y398A); assay: as above; format: biochemical; conditions: 10 mM ATP, 40 mM hydroxylamine, 40 mM MgSO4, 10 mM cysteine, 1 mM EDTA, pH 7.5, 30 °C; enzyme from LB-grown cells
T2 construct: gene glnA; GSI dodecamer; adenylylated at Tyr398 when made in nitrogen-replete medium
T2 sequence (Q6N5K7 entry or part of it Y398A): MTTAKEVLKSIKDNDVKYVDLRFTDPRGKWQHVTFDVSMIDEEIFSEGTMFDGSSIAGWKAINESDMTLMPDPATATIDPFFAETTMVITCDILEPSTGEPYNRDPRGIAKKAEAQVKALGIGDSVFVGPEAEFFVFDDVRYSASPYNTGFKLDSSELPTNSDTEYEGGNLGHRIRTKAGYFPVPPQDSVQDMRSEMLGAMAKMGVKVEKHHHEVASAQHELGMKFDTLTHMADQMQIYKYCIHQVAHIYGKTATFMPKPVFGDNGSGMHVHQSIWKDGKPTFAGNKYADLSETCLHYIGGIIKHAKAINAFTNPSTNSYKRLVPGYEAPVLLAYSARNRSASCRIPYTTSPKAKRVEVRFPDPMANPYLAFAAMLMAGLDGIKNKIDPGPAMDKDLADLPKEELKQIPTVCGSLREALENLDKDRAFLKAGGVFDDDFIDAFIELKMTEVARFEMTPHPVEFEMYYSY

T1 sequence (Q6N5K7 entry or part of it): as the sequence (Q6N5K7 entry or part of it Y398A) above, with A398Y counted along it

| SMILES | specific activity (GlnA1 [1]; 40 mM hydroxylamine) | specific activity (GlnA1 [2]) | specific activity (GlnA1 [1]; 10 mM L-glutamate) |
| --- | --- | --- | --- |
| N[C@@H](CCC(=O)O)C(=O)O [l-glutamate] | A large proportion of GlnA1 was deadenylated via mass spectrometric analysis | GlnA1^Y398A purified from E. coli cells that were grown in LB medium showed a significantly |  |
| NO [hydroxylamine] |  |  | A large proportion of GlnA1 was deadenylated via mass spectrometric analysis |
